Laboratory results reported in ChEMBL document CHEMBL1131763, “Thiazole-derived potent, highly bioavailable short duration growth hormone secretagogues” (Bioorg Med Chem Lett, 1999).
Active and inactive are the calls of the source. No cut-off for these calls is given here.

Columns and labels:
Type in all cases: functional, organism-based
Rattus norvegicus = species on record: Rattus norvegicus; assay: Concentration required for determining half-maximal release of growth hormone(GH) in the rat pituitary cell assay; conditions: Pituitary gland cell
Canis familiaris [1] = assay: In vivo growth hormone(GH) release in beagles after intravenous administration; NA- Not active; conditions: Canis lupus familiaris
Canis familiaris [2] = assay: In vivo growth hormone(GH) release in beagles after intravenously administered dose of 0.01 mg/kg; 1/1; design: dose 0.01 mg/kg; conditions: Canis lupus familiaris
Canis familiaris [3] = assay: In vivo growth hormone(GH) release in beagles after orally administered dose of 0.25 mg/kg; 6/8; design: dose 0.25 mg/kg; conditions: Canis lupus familiaris
Canis familiaris [4] = assay: In vivo growth hormone(GH) release in beagles after orally administered dose of 0.5 mg/kg;8/8; design: dose 0.5 mg/kg; conditions: Canis lupus familiaris

CCOC(=O)C1(Cc2cscn2)CCCN(C(=O)[C@@H](Cc2c[nH]c3ccccc23)NC(=O)C(C)(C)N)C1 (stereo partly drawn)
EC50 (Rattus norvegicus): 1 nM

CCOC(=O)C1(Cc2cccnc2)CCCN(C(=O)[C@@H](Cc2c[nH]c3ccccc23)NC(=O)C(C)(C)N)C1 (stereo partly drawn)
EC50 (Rattus norvegicus): 2.2 nM

CCOC(=O)C1(Cc2cncs2)CCCN(C(=O)[C@@H](Cc2c[nH]c3ccccc23)NC(=O)C(C)(C)N)C1 (stereo partly drawn)
Response (Canis familiaris [1]): inactive | EC50 (Rattus norvegicus): 6.1 nM

CCOC(=O)C1(Cc2ccccn2)CCCN(C(=O)[C@@H](Cc2c[nH]c3ccccc23)NC(=O)C(C)(C)N)C1 (stereo partly drawn)
EC50 (Rattus norvegicus): 0.5 nM

CC(C)(N)C(=O)N[C@H](Cc1c[nH]c2ccccc12)C(=O)N1CCC[C@](Cc2cscn2)(C(=O)O)C1
EC50 (Rattus norvegicus): > 500 nM

CCOC(=O)[C@@]1(Cc2ccccc2)CCCN(C(=O)[C@@H](Cc2c[nH]c3ccccc23)NC(=O)C(C)(C)N)C1
Response (Canis familiaris [2]): inactive | Response (Canis familiaris [3]): Partially active | Response (Canis familiaris [4]): Active | EC50 (Rattus norvegicus): 1.6 nM

CC(C)(N)C(=O)N[C@H](Cc1c[nH]c2ccccc12)C(=O)N1CCC[C@](Cc2ccccc2)(C(=O)O)C1
EC50 (Rattus norvegicus): 190 nM

CCOC(=O)C1(Cc2nccs2)CCCN(C(=O)[C@@H](Cc2c[nH]c3ccccc23)NC(=O)C(C)(C)N)C1 (stereo partly drawn)
EC50 (Rattus norvegicus): 4.2 nM

CC(C)(N)C(=O)N[C@H](Cc1c[nH]c2ccccc12)C(=O)N1CCC[C@](Cc2ccccn2)(C(=O)O)C1
EC50 (Rattus norvegicus): 570 nM

CCOC(=O)C1(Cc2ccncc2)CCCN(C(=O)[C@@H](Cc2c[nH]c3ccccc23)NC(=O)C(C)(C)N)C1 (stereo partly drawn)
EC50 (Rattus norvegicus): 4.4 nM

CCOC(=O)[C@@]1(Cc2cscn2)CCCN(C(=O)[C@@H](Cc2c[nH]c3ccccc23)NC(=O)C(C)(C)N)C1
EC50 (Rattus norvegicus): 15 nM

CCOC(=O)[C@]1(Cc2cscn2)CCCN(C(=O)[C@@H](Cc2c[nH]c3ccccc23)NC(=O)C(C)(C)N)C1
EC50 (Rattus norvegicus): 0.5 nM

CCOC(=O)[C@]1(Cc2ccccn2)CCCN(C(=O)[C@@H](Cc2c[nH]c3ccccc23)NC(=O)C(C)(C)N)C1
EC50 (Rattus norvegicus): 0.2 nM

CCOC(=O)[C@@]1(Cc2ccccn2)CCCN(C(=O)[C@@H](Cc2c[nH]c3ccccc23)NC(=O)C(C)(C)N)C1
EC50 (Rattus norvegicus): 3 nM
